# Laboratory results taken from patent publication US11053218B2, “3-(1-oxoisoindolin-2-yl)piperidine-2,6-dione derivatives and uses thereof” (Novartis AG, priority 2017, dated 2021).
# Read-outs that look alike come from different tables or passages of the source.
# Columns and labels:
# Format in all cases: cell-based
# IKZF1 = IKZF1 (Homo sapiens, UniProt Q13422+Q96SW2); experiment: Prolabel quantification of IKZF1 protein levels in 293GT cells; details: Prolabel assay, read-out: IKZF1 EC50
# GSPT1 = GSPT1 (Homo sapiens, UniProt P15170+Q96SW2); experiment: Prolabel quantification of GSPT1 protein levels in 293GT cells; details: Prolabel assay, read-out: GSPT1 EC50
# Protocol: The Prolabel system from DiscoverX was used to develop high-throughput and quantitative assays to measure changes in IKZF1, IKZF2 and GSPT1 protein levels in response to compounds. The prolabel tag was derived from the alpha fragment of beta galactosidase and has the following protein sequence: mssnslavvlqrrdwenpgvtqlnrlaahppfaswrnseeartdrpsqqlrslnge. The complementary fragment of beta-galactosidase (from DiscoverX), is added to the prolabel tag to form an active beta galactosidase enzyme whose activity can be precisely measured. In this way, the levels of a fusion protein with the prolabel tag can be quantified in cell lysates.
# Lentiviral vectors, based on the Invitrogen pLenti6.2/V5 DEST backbone, were constructed that placed the prolabel tag upstream of IKZF1, IKZF2 or GSPT1 and expressed the fusion protein from a CMV promoter.
# To ensure moderate and consistent expression of the prolabel fusion proteins across all cells in the population, stable cell lines were constructed from cells expressing a single copy of the construct. Lentivirus packaged with the constructs was made using the Virapower kit from Invitrogen.
# The levels of prolabel tagged fusion proteins in compound treated cell lines were measured as follows:
# Day 1, Cells were diluted to 1.0×10^6 cells/ml in normal growth medium. 17.5 μL of cells were plated in each well of a solid white 384 well plate. Plates were incubated overnight in a 37° C. tissue culture incubator.
# Day 2, Serial dilutions of compounds were made in 384 well plates from 10 mM stocks. 15 μL of DMSO was added to each well of a 384 well plate. In the first column 15 μL of stock compound was added. The solution was mixed and 15 μL was transferred to the next column. This was repeated until 20 two-fold dilutions were prepared. 2.5 μL of diluted compounds were transferred into 60 μL of cell culture medium in another 384 well plate, and mixed well. 2.5 μL of this mixture was added to the plated cells. The final DMSO concentration was 0.5% and the highest concentration of compound was 50 μM. Plates were incubated overnight (e.g., about 14 h, 18 h, or 24 h) in a 37° C. tissue culture incubator.
# Day 3, Plates were removed from the incubator and allowed to equilibrate at rt for 30 minutes. Prolabel substrate (DiscoverX PathHunter Prolabel Detection Kit, User manual: 93-0180) was added as described by the manufacturers protocols. Plates were incubated at rt for three hours and luminescence was read using an Envision reader (Perkin Elmer) Data was analyzed and visualized using the Spotfire software package.
# IKZF2 = IKZF2 (Homo sapiens, UniProt Q96SW2+Q9UKS7); experiment: Prolabel quantification of IKZF2 protein levels in 293GT cells
# [1] = 24 h, 10 μM, 24 h, 293GT cells; read-out: IKZF2 % protein reduction at 10 μM, 24 h
# [2] = Prolabel assay, 293GT cells; read-out: IKZF2 EC50
# [3] = Prolabel assay in HEK293GT cells, bar graph
# [4] = 10 μM, 24 h, 293GT cells; read-out: IKZF2 % protein reduction at 10 μM, 24 h
# Chain of IKZF2 (Q9UKS7 whole entry): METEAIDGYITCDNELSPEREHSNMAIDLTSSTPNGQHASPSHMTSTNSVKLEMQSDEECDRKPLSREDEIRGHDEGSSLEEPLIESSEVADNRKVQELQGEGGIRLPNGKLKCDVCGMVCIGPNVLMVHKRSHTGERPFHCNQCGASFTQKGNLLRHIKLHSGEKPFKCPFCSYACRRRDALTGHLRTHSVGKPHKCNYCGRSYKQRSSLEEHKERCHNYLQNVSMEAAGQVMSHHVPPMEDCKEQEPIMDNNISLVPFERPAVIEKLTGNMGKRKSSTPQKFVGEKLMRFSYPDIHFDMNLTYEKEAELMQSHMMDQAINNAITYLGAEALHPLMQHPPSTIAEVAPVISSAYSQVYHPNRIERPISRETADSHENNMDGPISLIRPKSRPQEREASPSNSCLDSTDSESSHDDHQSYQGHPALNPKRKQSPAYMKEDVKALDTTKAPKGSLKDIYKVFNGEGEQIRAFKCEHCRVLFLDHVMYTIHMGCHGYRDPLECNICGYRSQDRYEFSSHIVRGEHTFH
# Chain of IKZF2 (Q96SW2 whole entry): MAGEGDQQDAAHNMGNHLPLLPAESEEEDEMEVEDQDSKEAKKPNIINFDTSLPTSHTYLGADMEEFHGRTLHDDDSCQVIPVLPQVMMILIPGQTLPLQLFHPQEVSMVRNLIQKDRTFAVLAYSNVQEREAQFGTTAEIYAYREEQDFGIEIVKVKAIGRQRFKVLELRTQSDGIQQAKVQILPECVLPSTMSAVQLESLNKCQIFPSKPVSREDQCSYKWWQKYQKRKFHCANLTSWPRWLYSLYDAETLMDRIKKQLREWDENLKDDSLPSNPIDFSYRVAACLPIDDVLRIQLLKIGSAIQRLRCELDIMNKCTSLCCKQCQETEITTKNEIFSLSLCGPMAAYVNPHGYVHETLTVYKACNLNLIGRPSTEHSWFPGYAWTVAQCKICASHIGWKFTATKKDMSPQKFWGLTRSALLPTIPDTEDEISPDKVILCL
# Chain of IKZF2 (Q16531 whole entry partner): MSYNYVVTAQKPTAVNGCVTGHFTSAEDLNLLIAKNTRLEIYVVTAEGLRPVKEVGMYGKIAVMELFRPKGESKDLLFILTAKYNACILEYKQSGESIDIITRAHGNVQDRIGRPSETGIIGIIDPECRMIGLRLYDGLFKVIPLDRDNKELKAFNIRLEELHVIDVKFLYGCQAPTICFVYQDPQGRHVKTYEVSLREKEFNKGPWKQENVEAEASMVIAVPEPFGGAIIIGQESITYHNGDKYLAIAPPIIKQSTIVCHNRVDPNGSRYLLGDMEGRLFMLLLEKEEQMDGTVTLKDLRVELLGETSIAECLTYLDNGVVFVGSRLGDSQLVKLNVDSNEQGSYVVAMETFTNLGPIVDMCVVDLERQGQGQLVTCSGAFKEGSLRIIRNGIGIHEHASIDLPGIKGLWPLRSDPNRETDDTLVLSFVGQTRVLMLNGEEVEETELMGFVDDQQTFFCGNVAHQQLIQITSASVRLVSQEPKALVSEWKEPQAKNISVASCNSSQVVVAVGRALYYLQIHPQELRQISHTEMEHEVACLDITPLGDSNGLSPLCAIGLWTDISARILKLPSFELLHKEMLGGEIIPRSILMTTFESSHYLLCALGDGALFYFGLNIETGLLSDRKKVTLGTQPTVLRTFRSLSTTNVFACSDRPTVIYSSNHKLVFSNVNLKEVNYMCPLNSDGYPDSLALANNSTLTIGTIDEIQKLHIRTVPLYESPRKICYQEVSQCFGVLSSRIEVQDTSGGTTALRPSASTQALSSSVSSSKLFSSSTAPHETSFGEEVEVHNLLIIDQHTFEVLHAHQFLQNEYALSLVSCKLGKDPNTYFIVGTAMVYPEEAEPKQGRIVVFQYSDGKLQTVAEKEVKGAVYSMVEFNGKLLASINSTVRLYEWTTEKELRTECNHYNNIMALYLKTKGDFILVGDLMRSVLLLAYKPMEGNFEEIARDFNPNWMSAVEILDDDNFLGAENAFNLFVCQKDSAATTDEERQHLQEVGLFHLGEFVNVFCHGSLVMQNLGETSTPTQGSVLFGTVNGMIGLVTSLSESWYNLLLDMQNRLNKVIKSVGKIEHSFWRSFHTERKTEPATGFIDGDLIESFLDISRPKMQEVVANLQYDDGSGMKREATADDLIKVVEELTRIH
# Chain of GSPT1 (P15170 whole entry, the tested form may be a part): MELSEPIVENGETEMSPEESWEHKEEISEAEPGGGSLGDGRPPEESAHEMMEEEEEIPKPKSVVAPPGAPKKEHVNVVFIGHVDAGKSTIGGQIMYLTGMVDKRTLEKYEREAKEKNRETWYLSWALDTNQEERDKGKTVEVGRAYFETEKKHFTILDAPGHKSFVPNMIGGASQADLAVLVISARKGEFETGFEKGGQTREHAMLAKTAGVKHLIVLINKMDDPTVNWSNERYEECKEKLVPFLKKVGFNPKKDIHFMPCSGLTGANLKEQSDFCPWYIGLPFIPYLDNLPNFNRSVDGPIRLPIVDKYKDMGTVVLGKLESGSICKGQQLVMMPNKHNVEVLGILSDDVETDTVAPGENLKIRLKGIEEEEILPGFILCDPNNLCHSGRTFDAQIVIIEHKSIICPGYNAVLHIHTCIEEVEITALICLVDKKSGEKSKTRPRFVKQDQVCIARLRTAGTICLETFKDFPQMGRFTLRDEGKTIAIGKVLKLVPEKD
# Chain of GSPT1 (Q96SW2 whole entry, the tested form may be a part): as the sequence (Q96SW2 whole entry) above
# Chain of GSPT1 (Q16531 whole entry partner, the tested form may be a part): as the sequence (Q16531 whole entry partner) above
# Chain of IKZF1 (Q13422 whole entry): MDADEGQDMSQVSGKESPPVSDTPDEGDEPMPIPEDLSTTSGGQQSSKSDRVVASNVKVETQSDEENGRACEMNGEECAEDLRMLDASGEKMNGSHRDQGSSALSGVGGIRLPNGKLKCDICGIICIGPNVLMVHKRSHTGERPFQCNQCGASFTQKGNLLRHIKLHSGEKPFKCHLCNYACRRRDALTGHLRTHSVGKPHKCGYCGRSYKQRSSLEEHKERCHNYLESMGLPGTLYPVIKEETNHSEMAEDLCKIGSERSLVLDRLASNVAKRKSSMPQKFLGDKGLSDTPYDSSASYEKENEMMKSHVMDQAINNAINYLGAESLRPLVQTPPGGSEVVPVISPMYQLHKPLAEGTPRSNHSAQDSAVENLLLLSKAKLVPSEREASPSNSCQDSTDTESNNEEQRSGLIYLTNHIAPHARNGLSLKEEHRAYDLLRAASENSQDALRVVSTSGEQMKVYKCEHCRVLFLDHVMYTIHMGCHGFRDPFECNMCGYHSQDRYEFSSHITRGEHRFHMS
# Chain of IKZF1 (Q96SW2 whole entry): as the sequence (Q96SW2 whole entry) above
# Chain of IKZF1 (Q16531 whole entry partner): as the sequence (Q16531 whole entry partner) above
DC50 (IKZF1),DC50 (GSPT1),inhibition at 10 µM (IKZF2; [1]),DC50 (IKZF2; [2]),IKZF2 protein levels as compared to the control (DMSO) (IKZF2; [3]),Compound,inhibition at 10 µM (IKZF2; [4])
> 30 µM,> 30 µM,80%,0.016 µM,,"Cc1ccc2c(CN3CCC(c4ccc5c(c4)CN(C4CCC(=O)NC4=O)C5=O)CC3)c[nH]c2c1 (centres unmarked) [Compound I-149, 3-(5-(1-((6-methyl-1H-indol-3-yl)methyl)piperidin-4-yl)-1-oxoisoindolin-2-yl)piperidine-2,6-dione]",
> 30 µM,> 30 µM,50%,0.016 µM,,"Cn1nc(CN2CCC(c3ccc4c(c3)CN(C3CCC(=O)NC3=O)C4=O)CC2)c2ccccc21 (centres unmarked) [Compound I-203, 3-(5-(1-((1-methyl-1H-indazol-3-yl)methyl)piperidin-4-yl)-1-oxoisoindolin-2-yl)piperidine-2,6-dione]",
> 50 µM,> 30 µM,50%,0.003 µM,decreased,"COc1ncc(CN2CCC(c3ccc4c(c3)CN(C3CCC(=O)NC3=O)C4=O)CC2)cn1 (centres unmarked) [Compound I-68, 3-(5-(1-((2-methoxypyrimidin-5-yl)methyl)piperidin-4-yl)-1-oxoisoindolin-2-yl)piperidine-2,6-dione]",
> 30 µM,> 30 µM,65%,0.12 µM,,"Cc1ccc2sc(-c3ccc(CN4CCC(c5ccc6c(c5)CN(C5CCC(=O)NC5=O)C6=O)CC4)cc3)nc2c1 (centres unmarked) [Compound I-225, 3-(5-(1-(4-(5-methylbenzo[d]thiazo1-2-yl)benzyl)piperidin-4-yl)-1-oxoisoindolin-2-yl)piperidine-2,6-dione]",
> 50 µM,> 50 µM,63%,0.007 µM,,"O=C1CCC(N2Cc3cc(C4CCN(Cc5ccc(F)cc5)CC4)ccc3C2=O)C(=O)N1 (centres unmarked) [Compound I-112, 3-(5-(1-(4-fluorobenzyl)piperidin-4-yl)-1-oxoisoindolin-2-yl)piperidine-2,6-dione]",
> 50 µM,> 50 µM,55%,0.014 µM,,"O=C1CCC(N2Cc3cc(C4CCN(CC5CCCc6ccccc65)CC4)ccc3C2=O)C(=O)N1 (centres unmarked) [Compound I-168, 3-(1-oxo-5-(1-((1,2,3,4-tetrahydronaphthalen-1-yl)methyl)piperidin-4-yl)isoindolin-2-yl)piperidine-2,6-dione]",
> 50 µM,> 50 µM,55%,0.027 µM,,"O=C1CCC(N2Cc3cc(C4CCN(Cc5ccc(Cl)cc5)CC4)ccc3C2=O)C(=O)N1 (centres unmarked) [Compound I-97, 3-(5-(1-(4-chlorobenzyl)piperidin-4-yl)-1-oxoisoindolin-2-yl)piperidine-2,6-dione]",
> 30 µM,> 30 µM,70%,0.081 µM,,"NC(=O)c1cccc(CN2CCC(c3ccc4c(c3)CN(C3CCC(=O)NC3=O)C4=O)CC2)c1 (centres unmarked) [Compound I-139, 3-((4-(2-(2,6-dioxopiperidin-3-yl)-1-oxoisoindolin-5-yl)piperidin-1-yl)methyl)benzamide]",
> 50 µM,> 50 µM,25%,,,"O=C1CCC(N2Cc3cc(C4CCCNCC4)ccc3C2=O)C(=O)N1 (single isomer, unassigned) [Compound I-167, 3-(5-(azepan-4-yl)-1-oxoisoindolin-2-yl)piperidine-2,6-dione]",
> 30 µM,> 30 µM,75%,0.012 µM,,"O=C1CCC(N2Cc3cc(C4CCN(Cc5cccn6nccc56)CC4)ccc3C2=O)C(=O)N1 (centres unmarked) [Compound I-128, 3-(1-oxo-5-(1-(pyrazolo[1,5-a]pyridin-4-ylmethyl)piperidin-4-yl)isoindolin-2-yl)piperidine-2,6-dione]",
> 50 µM,> 50 µM,50%,0.018 µM,,"C[C@H]1CC(c2ccc3c(c2)CN(C2CCC(=O)NC2=O)C3=O)CCN1Cc1ccccc1 (stereo partly drawn) [Compound I-160, 3-(5-((2S)-1-benzyl-2-methylpiperidin-4-yl)-1-oxoisoindolin-2-yl)piperidine-2,6-dione]",
> 50 µM,> 50 µM,0%,> 50 µM,,"O=C1CCC(N2Cc3cc(C4CCN(CC(F)(F)F)CC4)ccc3C2=O)C(=O)N1 (centres unmarked) [Compound I-253, 3-(1-oxo-5-(1-(2,2,2-trifluoroethyl)piperidin-4-yl)isoindolin-2-yl)piperidine-2,6-dione]",
> 30 µM,> 30 µM,75%,0.012 µM,,"O=C1CCC(N2Cc3cc(C4CCN(Cc5ccc(C(F)F)cc5)CC4)ccc3C2=O)C(=O)N1 (centres unmarked) [Compound I-70, 3-(5-(1-(4-(difluoromethyl)benzyl)piperidin-4-yl)-1-oxoisoindolin-2-yl)piperidine-2,6-dione]",
> 30 µM,> 30 µM,75%,0.016 µM,,"O=C1CCC(N2Cc3cc(C4CCN(Cc5cnc(N6CCCC6)nc5)CC4)ccc3C2=O)C(=O)N1 (centres unmarked) [Compound I-142, 3-(1-oxo-5-(1-((2-(pyrrolidin-1-yl)pyrimidin-5-yl)methyl)piperidin-4-yl)isoindolin-2-yl)piperidine-2,6-dione]",
> 30 µM,> 30 µM,80%,0.012 µM,decreased,"O=C1CCC(N2Cc3cc(C4CCN(Cc5cc6ccccc6[nH]5)CC4)ccc3C2=O)C(=O)N1 (centres unmarked) [Compound I-136, 3-(5-(1-((1H-indo1-2-yl)methyl)piperidin-4-yl)-1-oxoisoindolin-2-yl)piperidine-2,6-dione]",
> 30 µM,> 30 µM,75%,0.025 µM,decreased,"O=C1CCC(N2Cc3cc(C4CCN(Cc5cnc(N6CCOCC6)nc5)CC4)ccc3C2=O)C(=O)N1 (centres unmarked) [Compound I-147, 3-(5-(1-((2-morpholinopyrimidin-5-yl)methyl)piperidin-4-yl)-1-oxoisoindolin-2-yl)piperidine-2,6-dione]",
> 30 µM,> 30 µM,80%,0.009 µM,,"O=C1CCC(N2Cc3cc(C4CCN(Cc5ccc6cn[nH]c6c5)CC4)ccc3C2=O)C(=O)N1 (centres unmarked) [Compound I-137, 3-(5-(1-((1H-indazol-6-yl)methyl)piperidin-4-yl)-1-oxoisoindolin-2-yl)piperidine-2,6-dione]",
> 30 µM,> 30 µM,75%,0.018 µM,,"O=C1CCC(N2Cc3cc(C4CCN(Cc5ccc(-n6cccn6)cc5)CC4)ccc3C2=O)C(=O)N1 (centres unmarked) [Compound I-91, 3-(5-(1-(4-(1H-pyrazol-1-yl)benzyl)piperidin-4-yl)-1-oxoisoindolin-2-yl)piperidine-2,6-dione]",
> 50 µM,> 50 µM,55%,0.065 µM,,"O=C1CCC(N2Cc3cc(C4CCN(Cc5cc[nH]n5)CC4)ccc3C2=O)C(=O)N1 (centres unmarked) [Compound I-118, 3-(5-(1-((1H-pyrazol-3-yl)methyl)piperidin-4-yl)-1-oxoisoindolin-2-yl)piperidine-2,6-dione]",
> 50 µM,> 30 µM,70%,0.019 µM,,"O=C1CCC(N2Cc3cc(C4CCN(Cc5ccnc6ccccc56)CC4)ccc3C2=O)C(=O)N1 (centres unmarked) [Compound I-214, 3-(1-oxo-5-(1-(quinolin-4-ylmethyl)piperidin-4-yl)isoindolin-2-yl)piperidine-2,6-dione]",

Compound,DC50 (IKZF1),DC50 (GSPT1),inhibition at 10 µM (IKZF2; [1]),DC50 (IKZF2; [2]),IKZF2 protein levels as compared to the control (DMSO) (IKZF2; [3]),inhibition at 10 µM (IKZF2; [4])
"COC(=O)CN1CCC(c2ccc3c(c2)CN(C2CCC(=O)NC2=O)C3=O)CC1 (centres unmarked) [Compound I-169, methyl 2-(4-(2-(2,6-dioxopiperidin-3-yl)-1-oxoisoindolin-5-yl)piperidin-1-yl)acetate]",> 50 µM,> 50 µM,,,,20%
"N#Cc1ccc(CN2CCC(c3ccc4c(c3)CN(C3CCC(=O)NC3=O)C4=O)CC2)cc1 (centres unmarked) [Compound I-31, 3-(5-(1-(4-nitrilebenzyl)piperidin-4-yl)-1-oxoisoindolin-2-yl)piperidine-2,6-dione]",> 50 µM,> 50 µM,,0.004 µM,,60%
